In patent publication US20240417410A1, “TRICYCLIC COMPOUNDS FOR THE TREATMENT OF CANCER” (Hoffmann-La Roche Inc., priority 2023, published 2024):
pIC50: −log10 of the molar value.

Legend:
[1] = target: KRAS G12C-BRAF complex (Homo sapiens (Human), UniProt P01116+P62937, G12C); experiment: KRAS-BRAF with CYPA (500 nM) interaction assay (TR-FRET, Example 136); format: biochemical; conditions: KRAS G12C-BRAF disruption
[2] = system: SW620 cells (KRAS G12V); experiment: Cell viability assay (Cell Counting Kit-8, 3-day); format: cell-based, human; conditions: Homo sapiens, SW-620; SW620, 72 hrs incubation
In short: (§1)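 Cells were seeded at 5,000 cells/well (NCI-H358) or 2,000 cells/well (AGS, SW620), incubated overnight, then treated with compounds in 0.5% DMSO final for 72 hrs. CCK-8 was added and OD450 minus OD650 read after 2 hrs; IC50 came from a 4-parameter sigmoidal fit.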

[3] = system: NCI-H358 cells (KRAS G12C); experiment: Cell viability assay (Cell Counting Kit-8, 3-day); format: cell-based, human; conditions: Homo sapiens, NCI-H358, 72 h, NCI-H358, 72 hrs incubation
In short: as §1

[4] = system: AGS cells (KRAS G12D); experiment: Cell viability assay (Cell Counting Kit-8, 3-day); format: cell-based, human; conditions: Homo sapiens, 72 h, 72 hrs incubation
In short: as §1

[5] = system: phosphorylation of ERK, KRAS G12V in SW620; experiment: pERK inhibition assay; format: cell-based; conditions: Homo sapiens, SW-620, 4 h, SW620 cells
In short: (§2)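 NCI-H358 (KRAS G12C), AGS (G12D) and SW620 (G12V) cells plated overnight, then treated with compound for 4 h in 0.5% DMSO. After fixing and methanol permeabilisation, phospho-ERK was detected by in-cell ELISA (HRP/TMB, OD450). IC50 from a 4-parameter sigmoidal fit.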

[6] = system: phosphorylation of ERK, KRAS G12D in AGS cells; experiment: pERK inhibition assay; format: cell-based; conditions: Homo sapiens, AGS, 4 h
In short: as §2

[7] = system: phosphorylation of ERK, KRAS G12C in NCI-H358 cells; experiment: pERK inhibition assay; format: cell-based; conditions: Homo sapiens, NCI-H358, 4 h
In short: as §2

Sequence of KRAS G12C-BRAF complex (P01116-2 other isoform, or with tags, fused parts or gaps G12C): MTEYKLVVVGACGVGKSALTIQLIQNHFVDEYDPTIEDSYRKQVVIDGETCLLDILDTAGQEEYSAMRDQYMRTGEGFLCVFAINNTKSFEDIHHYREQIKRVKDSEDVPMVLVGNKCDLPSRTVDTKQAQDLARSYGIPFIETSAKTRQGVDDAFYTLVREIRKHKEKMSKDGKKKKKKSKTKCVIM
Sequence of KRAS G12C-BRAF complex (P62937 whole entry): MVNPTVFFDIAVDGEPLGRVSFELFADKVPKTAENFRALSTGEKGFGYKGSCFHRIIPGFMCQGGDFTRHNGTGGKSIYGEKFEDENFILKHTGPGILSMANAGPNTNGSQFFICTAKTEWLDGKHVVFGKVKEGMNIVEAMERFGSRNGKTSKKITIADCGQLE

Structure (SMILES) | pIC50 [1] | pIC50 [2] | pIC50 [3] | pIC50 [4] | pIC50 [5] | pIC50 [6] | pIC50 [7]
CO[C@@H](C)c1ncc(N2CCN(C)CC2)cc1-c1c2c3cc(cc4c3n1CCC4)-c1csc(n1)C[C@H](NC(=O)[C@H]1C[C@@H]1c1cccnc1)C(=O)N1CCC[C@H](N1)C(=O)OCC(C)(C)C2 (atropisomer, axis not shown; (M)) [Example 56, (1S,2S)-N-[(7S,13S)-(20M)-20-[2-[(1S)-1-methoxyethyl]-5-(4-methylpiperazin-1-yl)-3-pyridyl]-17,17-dimethyl-8,14-dioxo-15-oxa-4-thia-9,21,30,31-tetrazahexacyclo[23.3.1.1^2,5.1^9,13.0^19,27.0^21,26]hentriaconta-1 (28),2,5 (31), 19,25 (29),26-hexaen-7-yl]-2-(3-pyridyl)cyclopropanecarboxamide] | 7.99 | 9.52 | 8.92 | 8.28 | 9.22 | 8.57 | 9.10
CO[C@@H](C)c1ncc(N2CCN(C)CC2)cc1-c1c2c3cc(cc4c3n1CC(F)(F)C4)-c1csc(n1)C[C@H](NC(=O)[C@H]1[C@@H]3COC[C@@H]31)C(=O)N1CCC[C@H](N1)C(=O)OCC(C)(C)C2 (atropisomer, axis not shown; (M)) [Example 60] | 7.82 | 8.77 | 8.09 | 7.49 | 9.05 | 8.09 | 8.64
CO[C@@H](C)c1ncc(N2CCOCC2)cc1-c1c2c3cc(cc4c3n1CC(C)(C)O4)-c1csc(n1)C[C@H](NC(=O)[C@H]1[C@H](C)[C@@H]1C)C(=O)N1CCC[C@H](N1)C(=O)OCC(C)(C)C2 (atropisomer, axis not shown; (M)) [Example 61, (1r,2R,3S)-N-[(7S,13S)-(20M)-20-[2-[(1S)-1-methoxyethyl]-5-morpholino-3-pyridyl]-17,17,23,23-tetramethyl-8,14-dioxo-15,24-dioxa-4-thia-9,21,30,31-tetrazahexacyclo[23.3.1.1^2,5.1^9,13.0^19,27.0^21,26]hentriaconta-1 (28),2,5 (31), 19,25 (29),26-hexaen-7-yl]-2,3-dimethyl-cyclopropanecarboxamide] | 7.29 | 8.52 | 7.65 | 7.48 | 8.96 | 7.99 | 8.07
CO[C@@H](C)c1ncc(N2CCN(C)CC2)cc1-c1c2c3cc(cc4c3n1CCC4)-c1csc(n1)C[C@H](NC(=O)[C@H]1C[C@@H]1c1cccnn1)C(=O)N1CCC[C@H](N1)C(=O)OCC(C)(C)C2 (atropisomer, axis not shown; (M)) [Example 63, (1S,2S)-N-[(7S,13S)-(20M)-20-[2-[(1S)-1-methoxyethyl]-5-(4-methylpiperazin-1-yl)-3-pyridyl]-17,17-dimethyl-8,14-dioxo-15-oxa-4-thia-9,21,30,31-tetrazahexacyclo[23.3.1.1^2,5.1^9,13.0^19,27.0^21,26]hentriaconta-1 (28),2,5 (31), 19,25 (29),26-hexaen-7-yl]-2-pyridazin-3-yl-cyclopropanecarboxamide] | 7.47 | 8.38 | 7.97 | 7.11 | 8.52 | 7.74 | 8.29
CO[C@@H](C)c1ncc(N2CCN(C)CC2)cc1-c1c2c3cc(cc4c3n1CCO4)-c1csc(n1)C[C@H](NC(=O)[C@@H]1C[C@H]1C1CC1)C(=O)N1CCC[C@H](N1)C(=O)OCC(C)(C)C2 (atropisomer, axis not shown; (M)) [Example 64, (1R,2S)-2-cyclopropyl-N-[(7S,13S)-(20M)-20-[2-[(1S)-1-methoxyethyl]-5-(4-methylpiperazin-1-yl)-3-pyridyl]-17,17-dimethyl-8,14-dioxo-15,24-dioxa-4-thia-9,21,30,31-tetrazahexacyclo[23.3.1.1^2,5.1^9,13.0^19,27.0^21,26]hentriaconta-1 (29),2,5 (31), 19,25,27-hexaen-7-yl]cyclopropanecarboxamide] | 7.76 | 8.89 | 8.10 | 7.66 | 9.22 | 8.43 | 8.92
CO[C@@H](C)c1ncc(N2CCOCC2)cc1-c1c2c3cc(cc4c3n1CCO4)-c1csc(n1)C[C@H](NC(=O)[C@H]1[C@H](C)[C@@H]1C)C(=O)N1CCC[C@H](N1)C(=O)OCC(C)(C)C2 (atropisomer, axis not shown; (M)) [Example 68, (1r,2R,3S)-N-[(7S,13S)-(20M)-20-[2-[(1S)-1-methoxyethyl]-5-morpholino-3-pyridyl]-17,17-dimethyl-8,14-dioxo-15,24-dioxa-4-thia-9,21,30,31-tetrazahexacyclo[23.3.1.1^2,5.1^9,13.0^19,27.0^21,26]hentriaconta-1 (29),2,5 (31),19,25,27-hexaen-7-yl]-2,3-dimethyl-cyclopropanecarboxamide] | 7.77 | 9.30 | 8.49 | 8.11 | 9.52 | 8.41 | 9.70
CO[C@@H](C)c1ncc(N2CCN(C)CC2)cc1-c1c2c3cc(cc4c3n1CC(C)(C)C4)-c1csc(n1)C[C@H](NC(=O)[C@H]1[C@H](C)[C@@H]1C)C(=O)N1CCC[C@H](N1)C(=O)OCC(C)(C)C2 (atropisomer, axis not shown; (M)) [Example 69, (1r,2S,3R)-N-[(7S,13S)-(20M)-20-[2-[(1S)-1-methoxyethyl]-5-(4-methylpiperazin-1-yl)-3-pyridyl]-17,17,23,23-tetramethyl-8,14-dioxo-15-oxa-4-thia-9,21,30,31-tetrazahexacyclo[23.3.1.1^2,5.1^9,13.0^19,27.0^21,26]hentriaconta-1 (28),2,5 (31), 19,25 (29),26-hexaen-7-yl]-2,3-dimethyl-cyclopropanecarboxamide] | 7.45 | 8.36 | 7.72 | 7.12 | 8.82 | 7.95 | 8.82
CO[C@@H](C)c1ncc(N2CCOCC2)cc1-c1c2c3cc(cc4c3n1CC(F)(F)C4)-c1csc(n1)C[C@H](NC(=O)[C@H]1C[C@@H]1C)C(=O)N1CCC[C@H](N1)C(=O)OCC(C)(C)C2 (atropisomer, axis not shown; (M)) [Example 75, (1S,2S)-N-[(7S,13S)-23,23-difluoro-(20M)-20-[2-[(1S)-1-methoxyethyl]-5-morpholino-3-pyridyl]-17,17-dimethyl-8,14-dioxo-15-oxa-4-thia-9,21,30,31-tetrazahexacyclo[23.3.1.1^2,5.1^9,13.0^19,27.0^21,26]hentriaconta-1 (28),2,5 (31),19,25 (29),26-hexaen-7-yl]-2-methyl-cyclopropanecarboxamide] | 7.53 | 8.44 | 7.69 | 7.23 | 8.59 | 7.63 | 8.31
CO[C@@H](C)c1ncc(N2CCOCC2)cc1-c1c2c3cc(cc4c3n1CC(F)(F)C4)-c1csc(n1)C[C@H](NC(=O)[C@H]1[C@H](C)[C@@H]1C)C(=O)N1CCC[C@H](N1)C(=O)OCC(C)(C)C2 (atropisomer, axis not shown; (M)) [Example 76, (1r,2S,3R)-N-[(7S,13S)-23,23-difluoro-(20M)-20-[2-[(1S)-1-methoxyethyl]-5-morpholino-3-pyridyl]-17,17-dimethyl-8,14-dioxo-15-oxa-4-thia-9,21,30,31-tetrazahexacyclo[23.3.1.1^2,5.1^9,13.0^19,27.0^21,26]hentriaconta-1 (28),2,5 (31), 19,25 (29),26-hexaen-7-yl]-2,3-dimethyl-cyclopropanecarboxamide] | 8.04 | 9.52 | 8.68 | 8.31 | 9.70 | 8.41 | 9.15
CO[C@@H](C)c1ncc(N2CCN(C)CC2)cc1-c1c2c3cc(cc4c3n1CC(F)(F)C4)-c1csc(n1)C[C@H](NC(=O)[C@H]1[C@H](C)[C@@H]1C)C(=O)N1CCC[C@H](N1)C(=O)OCC(C)(C)C2 (atropisomer, axis not shown; (M)) [Example 83] | 7.99 | 9.30 | 8.51 | 8.04 | 9.30 | 8.22 | 9.05
CO[C@@H](C)c1ncc(N2CCN(CC(F)(F)F)CC2)cc1-c1c2c3cc(cc4c3n1CCO4)-c1csc(n1)C[C@H](NC(=O)[C@H]1[C@H](C)[C@@H]1C)C(=O)N1CCC[C@H](N1)C(=O)OCC(C)(C)C2 (atropisomer, axis not shown; (M)) [Example 85, (1r,2S,3R)-N-[(7S,13S)-(20M)-20-[2-[(1S)-1-methoxyethyl]-5-[4-(2,2,2-trifluoroethyl)piperazin-1-yl]-3-pyridyl]-17,17-dimethyl-8,14-dioxo-15,24-dioxa-4-thia-9,21,30,31-tetrazahexacyclo[23.3.1.1^2,5.1^9,13.0^19,27.0^21,26]hentriaconta-1 (28),2,5 (31),19,25 (29),26-hexaen-7-yl]-2,3-dimethyl-cyclopropanecarboxamide] | 7.73 | 9.00 | 8.05 | 7.89 | 9.22 | 8.25 | 8.77
